According to paper PMC7500638, “Dissecting the antibacterial activity of oxadiazolone-core derivatives against Mycobacterium abscessus” (PLoS ONE, 2020):

Target: T1, Ag85CMabs (Ag85C, MAB_0175) (Mycobacteroides abscessus, UniProt B1MEL1)
T1 construct: C-terminal 6His-tag; pMyC vector, expressed in M. smegmatis delta-groEL1
Experiment: competitive TAMRA-FP activity-based probe labelling, in-gel fluorescence
Type: binding
Settings: covalent; 14 uM enzyme, 1 h preincubation, 10 mM Tris pH 8, 150 mM NaCl, 0.1% Triton X-100; catalytic Ser124

T1 sequence (B1MEL1 entry or part of it): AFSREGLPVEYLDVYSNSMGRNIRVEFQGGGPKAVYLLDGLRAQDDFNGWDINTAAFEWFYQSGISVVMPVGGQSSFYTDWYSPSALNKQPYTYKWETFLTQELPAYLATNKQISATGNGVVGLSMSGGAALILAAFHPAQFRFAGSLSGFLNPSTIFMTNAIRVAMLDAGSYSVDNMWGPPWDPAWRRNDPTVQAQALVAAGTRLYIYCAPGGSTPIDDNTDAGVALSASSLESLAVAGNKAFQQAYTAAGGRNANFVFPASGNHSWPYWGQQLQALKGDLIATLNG

`CC(C)COc1nn(-c2ccc(Oc3ccccc3)cc2)c(=O)o1` [iBpPPOX] was tested. Which “% loss of TAMRA-FP labelling at E/I 1:75” value did it give?
The value was greater than 90%.
